Literature values, collected in patent publication EP1214078B1, “FORMULATIONS FOR PARENTERAL USE OF ES[…] AND AMINO ACIDS” (priority 1999, dated 2001).

Conditions: patients, slow intravenous injection or bolus, 300 mg/day

In the case of `C[C@]12CC[C@@H]3c4ccc(OC(=O)N(CCCl)CCCl)cc4CC[C@H]3[C@@H]1CC[C@@H]2OP(=O)(O)O` [estramustine phosphate, Estramustine phosphate], the “side effects at the peripheral intravenous injection sites” value is listed as “thrombophlebitis and local irritations”.
